The test concerns the target T1, human renal renin (Homo sapiens, UniProt P00797).
T1 construct: human renal renin, free from acid proteolytic activity; from tissue
T1 sequence (P00797 67-406): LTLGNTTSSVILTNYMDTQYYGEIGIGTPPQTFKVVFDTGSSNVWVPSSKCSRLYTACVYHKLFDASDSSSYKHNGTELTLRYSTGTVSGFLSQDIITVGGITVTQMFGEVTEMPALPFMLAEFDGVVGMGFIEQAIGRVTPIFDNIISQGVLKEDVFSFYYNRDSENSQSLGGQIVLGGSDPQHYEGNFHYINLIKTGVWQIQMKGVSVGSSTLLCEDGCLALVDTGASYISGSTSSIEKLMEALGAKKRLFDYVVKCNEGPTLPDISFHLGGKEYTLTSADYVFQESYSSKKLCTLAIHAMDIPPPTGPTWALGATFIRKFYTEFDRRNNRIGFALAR
Description: Inhibition of human renal renin in vitro (angiotensin I formed, radioimmunoassay). The format is biochemical. Particulars: human angiotensinogen substrate, 37 degrees C., pH 6.0. On the procedure: The novel compounds of the present invention are also useful for treating congestive heart failure. […] At the end of the incubation, the amount of angiotensin I formed is measured by radioimmunoassay and the molar concentration required to cause 50% inhibition, expressed as the IC50, is calculated.

The structures appear in SMILES notation.

One compound from patent publication US5164388A, “Heterocyclic peptide renin inhibitors” (Abbott Laboratories, priority 1991, dated 1992) can be followed below.

As a reminder, the IC50 is the point on the concentration scale where inhibition reaches its midpoint. Read a low IC50 as greater potency.

Consider `CCCCC(C(=O)N[C@@H](CC1CCCCC1)[C@@H](O)[C@@H](O)CC(C)C)N1CCCC(Cc2ccccc2)C1` (stereo partly drawn) [Example 18, 2-(3-Benzylpiperidin-1-yl)-hexanoic acid Amide of 2(S)-Amino-1-cyclohexyl-3(R),4(S)-dihydroxy-6-methylheptane], for which it took 920 nM to reach half-maximal inhibition (IC50).
